The record followed here is ChEMBL document CHEMBL1201862, “PubChem BioAssay data set” (2004).

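The compound was tested at five concentrations on cells cultured in 96-well plates, with a 48-hour exposure period. Abbreviation: GI50, concentration required for 50% inhibition of growth.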 Calls of active or inactive are those of the source. No stated cut-off is given here; in the data, active = GI50 up to about 1.1 µM and inactive = higher. Some results are limits rather than exact numbers.

Test systems include NCI/ADR-RES; K562; HT-29; Malme-3M; SK-MEL-2; SNB-19; UACC-62; SR; MDA-MB-435; PC-3; HCT-116; TK-10; MOLT-4; UO-31; LOX IMVI; SK-MEL-5; COLO 205; SF-539; SK-OV-3; CCRF-CEM.
Common to all, as to test: inhibition of tumour cell growth, NCI panel, 48 h

As for `N#Cc1c(NC(=S)Nc2ccc(Cl)cc2)sc2c1CCCC2`, the GI50 was 65.3 µM (inactive) in the assay with NCI/ADR-RES; 29.4 µM (inactive) in the assay with K562; > 100 µM (inactive) with HT-29; 41.2 µM (inactive) with Malme-3M; > 100 µM (inactive) in the assay on SK-MEL-2; > 100 µM (inactive) in the assay with SNB-19. Further, the GI50 with UACC-62 was > 100 µM (inactive); in the assay on SR it was 25.1 µM (inactive); in the assay on MDA-MB-435, > 100 µM (inactive); in the assay with PC-3, > 100 µM (inactive); with HCT-116, > 100 µM (inactive); with TK-10, > 100 µM (inactive). In addition, the GI50 in the assay on MOLT-4 was 16.6 µM (inactive); in the assay with UO-31, > 100 µM (inactive); with LOX IMVI it was > 100 µM (inactive); with SK-MEL-5, > 100 µM (inactive); with COLO 205, > 100 µM (inactive).
As for `COc1cc(/C=C/C(=O)O)ccc1C(=O)O/C=C/c1ccccc1`, the GI50 with NCI/ADR-RES, with K562, in the assay on HT-29, in the assay with SF-539, in the assay with SK-OV-3 and with Malme-3M was > 100 µM (inactive) in each case. The GI50 was > 100 µM (inactive) with SK-MEL-2; > 100 µM (inactive) in the assay with SNB-19; > 100 µM (inactive) in the assay with UACC-62; 60.7 µM (inactive) with CCRF-CEM; > 72.8 µM (inactive) with HCT-116; 65.9 µM (inactive) with MOLT-4. The GI50 was > 66.7 µM (inactive) in the assay with UO-31, 73.1 µM (inactive) in the assay with LOX IMVI, > 100 µM (inactive) in the assay with SK-MEL-5 and > 100 µM (inactive) with COLO 205.
For the compound `COc1ccc(C(O)(c2ccccc2)c2nccc3ccccc23)cc1` (configuration not stated), the GI50 in the assay with NCI/ADR-RES was 7.05 µM (inactive); in the assay on K562 it was 2.7 µM (inactive); with HT-29 it was 7.46 µM (inactive); in the assay on SK-OV-3, 4.06 µM (inactive); in the assay on Malme-3M, 0.0966 µM (active); in the assay on SNB-19, 11.9 µM (inactive). The GI50 in the assay on UACC-62 is 3.74 µM (inactive); in the assay with SR it was 7.74 µM (inactive); in the assay on MDA-MB-435, 3.6 µM (inactive); in the assay on CCRF-CEM, 2.01 µM (inactive); with PC-3, 3.02 µM (inactive); with HCT-116 it was 4.76 µM (inactive). For the same compound, the GI50 in the assay on TK-10 was 27.8 µM (inactive); in the assay with MOLT-4, 2.29 µM (inactive); in the assay on UO-31, 21 µM (inactive); in the assay on LOX IMVI it was 5.18 µM (inactive); in the assay with SK-MEL-5, 3.38 µM (inactive); in the assay on COLO 205, 4.47 µM (inactive).
With `Cc1nc2ccc(NC3OCC(O)C(O)C3O)cc2c(=O)n1-c1ccccc1` (configuration not stated), the GI50 with NCI/ADR-RES, in the assay on K562, with HT-29, with Malme-3M, in the assay with SK-MEL-2 and with SNB-19 was > 100 µM (inactive) throughout. Further, the GI50 in the assay with UACC-62, in the assay with SR, in the assay with MDA-MB-435, in the assay with PC-3, in the assay with HCT-116 and with TK-10 was > 100 µM (inactive) throughout. Also, the GI50 with MOLT-4, with UO-31, with LOX IMVI, with SK-MEL-5 and in the assay with COLO 205 was > 100 µM (inactive) in each case.
For `CCOC(=O)C1(C(=O)OCC)CSC1`, the GI50 with NCI/ADR-RES, in the assay on K562, with HT-29, with SK-OV-3, in the assay with SNB-19 and in the assay with SR was > 100 µM (inactive) in each case. Further, the GI50 in the assay on MDA-MB-435, with CCRF-CEM, in the assay with PC-3, in the assay on HCT-116, with TK-10 and in the assay with MOLT-4 was > 100 µM (inactive) in each case. Moreover, the GI50 with UO-31, with LOX IMVI, with SK-MEL-5 and with COLO 205 was > 100 µM (inactive) in each case.
Regarding `CCNC(=O)N(CC)CN(CC)C(=O)NCC`, the GI50 with K562, with HT-29, in the assay with SF-539, with SK-OV-3, with Malme-3M and in the assay on SK-MEL-2 was > 100 µM (inactive) each time. Also, the GI50 in the assay on SNB-19, in the assay on UACC-62, in the assay on CCRF-CEM, with HCT-116, with MOLT-4 and in the assay on UO-31 was > 100 µM (inactive) throughout. Besides, the GI50 in the assay with LOX IMVI and in the assay on COLO 205 was > 100 µM (inactive) each time.
`O=C1C2=C(C3=NCCc4c[nH]c1c43)C1(C=C(Br)C(O)C(Br)=C1)CCN2` (configuration not stated): the GI50 in the assay on NCI/ADR-RES was 0.421 µM (active); in the assay with K562, 2.3 µM (inactive); in the assay with HT-29, 0.312 µM (active); in the assay with SF-539 it was 2.05 µM (inactive); in the assay on SK-OV-3, 13.3 µM (inactive); with SK-MEL-2, 3.2 µM (inactive). Besides, the GI50 with SNB-19 is 11.1 µM (inactive); in the assay on UACC-62, 0.851 µM (active); with CCRF-CEM it was 1.96 µM (inactive); with HCT-116, 0.625 µM (active); in the assay on MOLT-4, 0.721 µM (active); in the assay with UO-31, 11.1 µM (inactive). Moreover, the values for the GI50 in the assay on LOX IMVI, in the assay on SK-MEL-5 and with COLO 205 were 0.736 µM (active), 1.07 µM (active) and 0.115 µM (active), respectively.
Turning to `COc1ccc2c(c1)CCCc1cn[nH]c1-2`, the GI50 in the assay with NCI/ADR-RES is > 100 µM (inactive); with K562 it was > 65.8 µM (inactive); in the assay with HT-29, > 100 µM (inactive); with SF-539, > 100 µM (inactive); in the assay with SK-OV-3 it was > 100 µM (inactive); in the assay on Malme-3M, > 100 µM (inactive). Further, the GI50 in the assay on SK-MEL-2 was > 100 µM (inactive); in the assay with SNB-19, > 100 µM (inactive); in the assay on UACC-62, > 100 µM (inactive); in the assay on CCRF-CEM it was > 72.4 µM (inactive); in the assay on HCT-116 it was > 100 µM (inactive); with MOLT-4 it was > 100 µM (inactive). Besides, the GI50 in the assay with UO-31, in the assay on LOX IMVI, in the assay on SK-MEL-5 and in the assay with COLO 205 was > 100 µM (inactive) each time.
As to `ICC1CCCO1` (configuration not stated), the GI50 in the assay with HT-29, in the assay on SF-539, with Malme-3M, in the assay with SK-MEL-2, with SNB-19 and with SR was > 100 µM (inactive) each time. In addition, the GI50 with CCRF-CEM, with HCT-116, in the assay on TK-10, in the assay on MOLT-4, in the assay with LOX IMVI and in the assay on SK-MEL-5 was > 100 µM (inactive) each time. The GI50 in the assay on COLO 205 is > 100 µM (inactive).
